From US12371454B2, “Cyclic peptide compound having Kras inhibitory action” (priority 2019, dated 2025)
Positions of bridges follow the written chain, without caps; N, C: chain ends. Non-standard residues stand in square brackets, D forms with d. Residues, ends and D or L forms follow the SMILES beside them. *: point of attachment. hPhe(3-Cl-4-CF3) = N[C@@H](CCc1ccc(C(F)(F)F)c(Cl)c1)C(=O)O; hPhe(3-F,4-CF3) = N[C@@H](CCc1ccc(C(F)(F)F)c(F)c1)C(=O)O; NMePhe(4-CF3) = CN[C@@H](Cc1ccc(C(F)(F)F)cc1)C(=O)O; hPhe(4-CF3) = N[C@@H](CCc1ccc(C(F)(F)F)cc1)C(=O)O; NMePhe(4-Me) = CN[C@@H](Cc1ccc(C)cc1)C(=O)O; NMeNle(6-CHF2) = CN[C@@H](CCCCC(F)F)C(=O)O; NMeGly(cPent) = CN[C@H](C(=O)O)C1CCCC1; Pro(4,4-F2) = O=C(O)[C@@H]1CC(F)(F)CN1; NMeCha = CN[C@@H](CC1CCCCC1)C(=O)O; NMeD = CN[C@@H](CC(=O)O)C(=O)O; CH2CONHtBu = CC(C)(C)NC(=O)C*; NMeL = CN[C@@H](CC(C)C)C(=O)O; Chg = N[C@H](C(=O)O)C1CCCCC1; NMeNle = CCCC[C@H](NC)C(=O)O; NMeV = CN[C@H](C(=O)O)C(C)C; d(β3hA) = C[C@@H](N)CC(=O)O; NMeS = CN[C@@H](CO)C(=O)O; NMeA = CN[C@@H](C)C(=O)O; Piperidide = C1CCN(*)CC1; Pra = C#CC[C@H](N)C(=O)O; dNMeA = CN[C@H](C)C(=O)O; Ac5c = NC1(C(=O)O)CCCC1; Aze = O=C(O)[C@@H]1CCN1; CH2CMe2OH = CC(C)(O)C*; Aib = CC(C)(N)C(=O)O; Isopentyl = CC(C)CC*; NEtG = CCNCC(=O)O; Sar = CNCC(=O)O

target: T1, Kras and SOS1 (biotin-tagged human Kras loaded with GDP, His-tagged human SOS1) (Homo sapiens, UniProt P01116, G12D); experiment: Protein-protein interaction inhibition between Kras and SOS1 (KrasGl2D-SOS PPI) using AlphaScreen; assay type: binding; details: AlphaScreen; biotin-tagged human Kras loaded with GDP, His-tagged human SOS1; read-out: KRAS G12D-SOS PPI IC50
T1 construct: made in house; host or cells: E. coli (stated for Kras only)
T1 sequence (P01116 1-188 isoform P01116-2 G12D): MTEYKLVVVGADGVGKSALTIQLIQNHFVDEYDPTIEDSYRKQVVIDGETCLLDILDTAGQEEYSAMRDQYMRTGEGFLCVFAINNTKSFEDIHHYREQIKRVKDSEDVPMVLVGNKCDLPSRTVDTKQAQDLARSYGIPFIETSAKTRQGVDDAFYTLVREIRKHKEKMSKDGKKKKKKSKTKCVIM
Method in brief: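 Binding between SOS1 and Kras is detected as bead-proximity luminescence: illuminate Ni-conjugated donors (680 nm), collect 520-620 nm emission from streptavidin-conjugated acceptors; Kras carries biotin and GDP loaded after purification, SOS1 carries a His tag.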

Compound | IC50 [nM]
CC[C@H](C)[C@@H]1NC(=O)[C@H](C)N(C)C(=O)C[C@@H](C)NC(=O)[C@H](C2CCCC2)N(C)C(=O)C2(CCCC2)NC(=O)[C@@H]2CCCN2C(=O)[C@H](CCc2ccc(C(F)(F)F)c(Cl)c2)NC(=O)[C@@H](C)N(C)C(=O)[C@H](Cc2ccc(C(F)(F)F)cc2)N(C)C(=O)[C@@H]2CCN2C(=O)CN(C)C1=O [Compound 1507] (cyclo([Ac5c][NMeGly(cPent)][d(β3hA)][NMeA]I[Sar][Aze][NMePhe(4-CF3)][dNMeA][hPhe(3-Cl-4-CF3)]P)) | 24
CC[C@H](C)[C@@H]1NC(=O)[C@H](CC(C)C)N(C)C(=O)C[C@@H](C)NC(=O)[C@H](CC(C)C)N(C)C(=O)C2(CCCC2)NC(=O)[C@@H]2CC(F)(F)CN2C(=O)[C@H](CCc2ccc(C(F)(F)F)c(F)c2)NC(=O)CN(C)C(=O)[C@H](CC2CCCCC2)N(C)C(=O)CN(C)C(=O)CN(C)C1=O [Compound 1509] (cyclo([Ac5c][NMeL][d(β3hA)][NMeL]I[Sar][Sar][NMeCha][Sar][hPhe(3-F,4-CF3)][Pro(4,4-F2)])) | 23
CC[C@H](C)[C@@H]1NC(=O)[C@H](C)N(C)C(=O)C[C@@H](C)NC(=O)[C@H](C2CCCC2)N(C)C(=O)C2(CCCC2)NC(=O)[C@@H]2CCCN2C(=O)[C@H](CCc2ccc(C(F)(F)F)c(Cl)c2)NC(=O)[C@@H](C)N(C)C(=O)[C@H](CC2CCCCC2)N(C)C(=O)[C@@H]2CCN2C(=O)[C@H](C)N(C)C1=O [Compound 1510] (cyclo([Ac5c][NMeGly(cPent)][d(β3hA)][NMeA]I[NMeA][Aze][NMeCha][dNMeA][hPhe(3-Cl-4-CF3)]P)) | 110
CC[C@H](C)[C@@H]1NC(=O)[C@H](CC(C)C)N(C)C(=O)C[C@@H](C)NC(=O)[C@H](CC(C)C)N(C)C(=O)C(C)(C)NC(=O)[C@H](COCC(=O)NC(C)(C)C)N(C)C(=O)[C@H](CCc2ccc(C(F)(F)F)c(Cl)c2)NC(=O)CN(C)C(=O)[C@H](COCCC(C)C)N(C)C(=O)[C@@H]2CCN2C(=O)CN(CC)C1=O [Compound 1513] (cyclo([Aib][NMeL][d(β3hA)][NMeL]I[NEtG][Aze][NMeS](Isopentyl)[Sar][hPhe(3-Cl-4-CF3)][NMeS](CH2CONHtBu))) | 270
CC[C@H](C)[C@@H]1NC(=O)[C@H](CC(C)C)N(C)C(=O)C[C@@H](C)NC(=O)[C@H](CC(C)C)N(C)C(=O)C2(CCCC2)NC(=O)[C@@H]2CCCN2C(=O)[C@H](CCc2ccc(C(F)(F)F)c(F)c2)NC(=O)CN(C)C(=O)[C@H](CCCCC(F)F)N(C)C(=O)CN(C)C(=O)CN(C)C1=O [Compound 1515] (cyclo([Ac5c][NMeL][d(β3hA)][NMeL]I[Sar][Sar][NMeNle(6-CHF2)][Sar][hPhe(3-F,4-CF3)]P)) | 77
CCCC[C@H]1C(=O)N[C@H](C)CC(=O)N(C)[C@@H](CC(C)C)C(=O)N[C@@H]([C@@H](C)CC)C(=O)N(C)CC(=O)N(C)CC(=O)N(C)[C@@H](CC2CCCCC2)C(=O)N(C)CC(=O)N[C@@H](CCc2ccc(C(F)(F)F)c(F)c2)C(=O)N2CCC[C@H]2C(=O)NC2(CCCC2)C(=O)N1C [Compound 1518] (cyclo([Ac5c][NMeNle][d(β3hA)][NMeL]I[Sar][Sar][NMeCha][Sar][hPhe(3-F,4-CF3)]P)) | 370
CC[C@H](C)[C@@H]1NC(=O)[C@H](C)N(C)C(=O)C[C@@H](C)NC(=O)[C@H](C2CCCC2)N(C)C(=O)C2(CCCC2)NC(=O)[C@@H]2CCCN2C(=O)[C@H](CCc2ccc(C(F)(F)F)c(Cl)c2)NC(=O)[C@@H](C)N(C)C(=O)[C@H](Cc2ccc(C(F)(F)F)cc2)N(C)C(=O)CN(C)C(=O)CN(C)C1=O [Compound 1520] (cyclo([Ac5c][NMeGly(cPent)][d(β3hA)][NMeA]I[Sar][Sar][NMePhe(4-CF3)][dNMeA][hPhe(3-Cl-4-CF3)]P)) | 59
CC[C@H](C)[C@@H]1NC(=O)[C@H](CC(C)C)N(C)C(=O)C[C@@H](C)NC(=O)[C@H](C2CCCC2)N(C)C(=O)C2(CCCC2)NC(=O)[C@@H]2CCCN2C(=O)[C@H](CCc2ccc(C(F)(F)F)c(Cl)c2)NC(=O)[C@@H](C)N(C)C(=O)[C@H](Cc2ccc(C)cc2)N(C)C(=O)CN(C)C(=O)CN(C)C1=O [Compound 1521] (cyclo([Ac5c][NMeGly(cPent)][d(β3hA)][NMeL]I[Sar][Sar][NMePhe(4-Me)][dNMeA][hPhe(3-Cl-4-CF3)]P)) | 110
CC[C@H](C)[C@@H]1NC(=O)[C@H](C)N(C)C(=O)C[C@@H](C)NC(=O)[C@H](C2CCCC2)N(C)C(=O)C2(CCCC2)NC(=O)[C@@H]2CCCN2C(=O)[C@H](CCc2ccc(C(F)(F)F)c(Cl)c2)NC(=O)[C@H]2CCCN2C(=O)[C@H](Cc2ccc(C(F)(F)F)cc2)N(C)C(=O)[C@@H]2CCN2C(=O)CN(C)C1=O [Compound 1522] (cyclo([Ac5c][NMeGly(cPent)][d(β3hA)][NMeA]I[Sar][Aze][NMePhe(4-CF3)][dP][hPhe(3-Cl-4-CF3)]P)) | 90
CC[C@H](C)[C@@H]1NC(=O)[C@H](CC(C)C)N(C)C(=O)C[C@@H](C)NC(=O)[C@H](CC(C)C)N(C)C(=O)C(C)(C)NC(=O)[C@H](CC(C)C)N(C)C(=O)[C@H](CCc2ccc(C(F)(F)F)c(F)c2)NC(=O)CN(C)C(=O)[C@H](CCCCC(F)F)N(C)C(=O)CN(C)C(=O)CN(C)C1=O [Compound 1526] (cyclo([Aib][NMeL][d(β3hA)][NMeL]I[Sar][Sar][NMeNle(6-CHF2)][Sar][hPhe(3-F,4-CF3)][NMeL])) | 100
CC(C)C[C@H]1C(=O)N[C@@H](C2CCCCC2)C(=O)N(C)CC(=O)N(C)CC(=O)N(C)[C@@H](CC2CCCCC2)C(=O)N(C)CC(=O)N[C@@H](CCc2ccc(C(F)(F)F)c(F)c2)C(=O)N2CCC[C@H]2C(=O)NC2(CCCC2)C(=O)N(C)[C@@H](CC(C)C)C(=O)N[C@H](C)CC(=O)N1C [Compound 1527] (cyclo([Ac5c][NMeL][d(β3hA)][NMeL][Chg][Sar][Sar][NMeCha][Sar][hPhe(3-F,4-CF3)]P)) | 190
CC[C@H](C)[C@@H]1NC(=O)[C@H](CC(C)C)N(C)C(=O)C[C@@H](C(=O)N2CCCCC2)N(C)C(=O)[C@H](CC(C)C)N(C)C(=O)C(C)(C)NC(=O)[C@H](COCC(C)(C)O)N(C)C(=O)[C@H](CCc2ccc(C(F)(F)F)cc2)NC(=O)CN(C)C(=O)[C@H](COCCC(C)C)N(C)C(=O)CN(C)C(=O)CN(CC)C1=O [Compound 1528] ([NMeL]I[NEtG][Sar][NMeS](Isopentyl)[Sar][hPhe(4-CF3)][NMeS](CH2CMe2OH)[Aib][NMeL][NMeD]-Piperidide; lactam N-11) | 41
CC[C@H](C)[C@@H]1NC(=O)[C@H](CC(C)C)N(C)C(=O)C[C@@H](C)NC(=O)[C@H](C2CCCC2)N(C)C(=O)C2(CCCC2)NC(=O)[C@@H]2CCCN2C(=O)[C@H](CCc2ccc(C(F)(F)F)c(Cl)c2)NC(=O)[C@@H](C)N(C)C(=O)[C@H](CC2CCCCC2)N(C)C(=O)CN(C)C(=O)CN(C)C1=O [Compound 1530] (cyclo([Ac5c][NMeGly(cPent)][d(β3hA)][NMeL]I[Sar][Sar][NMeCha][dNMeA][hPhe(3-Cl-4-CF3)]P)) | 130
CC[C@H](C)[C@@H]1NC(=O)[C@H](CC(C)C)N(C)C(=O)C[C@@H](C(=O)N2CCCCC2)N(C)C(=O)[C@H](CC(C)C)N(C)C(=O)C(C)(C)NC(=O)[C@H](COCC(C)(C)O)N(C)C(=O)[C@H](CCc2ccc(C(F)(F)F)c(F)c2)NC(=O)CN(C)C(=O)[C@H](COCCC(C)C)N(C)C(=O)CN(C)C(=O)CN(C)C1=O [Compound 1532] ([NMeL]I[Sar][Sar][NMeS](Isopentyl)[Sar][hPhe(3-F,4-CF3)][NMeS](CH2CMe2OH)[Aib][NMeL][NMeD]-Piperidide; lactam N-11) | 4.8
C#CC[C@@H]1NC(=O)[C@H](CC(C)C)N(C)C(=O)C[C@@H](C)NC(=O)[C@H](CC(C)C)N(C)C(=O)C2(CCCC2)NC(=O)[C@@H]2CCCN2C(=O)[C@H](CCc2ccc(C(F)(F)F)c(F)c2)NC(=O)CN(C)C(=O)[C@H](CC2CCCCC2)N(C)C(=O)CN(C)C(=O)CN(C)C1=O [Compound 1533] (cyclo([Ac5c][NMeL][d(β3hA)][NMeL][Pra][Sar][Sar][NMeCha][Sar][hPhe(3-F,4-CF3)]P)) | 68
CC[C@H](C)[C@@H]1NC(=O)[C@H](CC(C)C)N(C)C(=O)C[C@@H](C)NC(=O)[C@H](C(C)C)N(C)C(=O)C2(CCCC2)NC(=O)[C@@H]2CCCN2C(=O)[C@H](CCc2ccc(C(F)(F)F)c(F)c2)NC(=O)CN(C)C(=O)[C@H](CC2CCCCC2)N(C)C(=O)CN(C)C(=O)CN(C)C1=O [Compound 1534] (cyclo([Ac5c][NMeV][d(β3hA)][NMeL]I[Sar][Sar][NMeCha][Sar][hPhe(3-F,4-CF3)]P)) | 62
CC[C@H](C)[C@@H]1NC(=O)[C@H](C)N(C)C(=O)C[C@@H](C)NC(=O)[C@H](C2CCCC2)N(C)C(=O)C2(CCCC2)NC(=O)[C@@H]2CCCN2C(=O)[C@H](CCc2ccc(C(F)(F)F)c(Cl)c2)NC(=O)[C@@H](C)N(C)C(=O)[C@H](CC2CCCCC2)N(C)C(=O)CN(C)C(=O)CN(C)C1=O [Compound 1535] (cyclo([Ac5c][NMeGly(cPent)][d(β3hA)][NMeA]I[Sar][Sar][NMeCha][dNMeA][hPhe(3-Cl-4-CF3)]P)) | 41
CC[C@H](C)[C@@H]1NC(=O)[C@H](C)N(C)C(=O)C[C@@H](C)NC(=O)[C@H](C2CCCC2)N(C)C(=O)C2(CCCC2)NC(=O)[C@@H]2CCCN2C(=O)[C@H](CCc2ccc(C(F)(F)F)c(Cl)c2)NC(=O)[C@H]2CCCN2C(=O)[C@H](Cc2ccc(C)cc2)N(C)C(=O)[C@@H]2CCN2C(=O)[C@H](C)N(C)C1=O [Compound 1540] (cyclo([Ac5c][NMeGly(cPent)][d(β3hA)][NMeA]I[NMeA][Aze][NMePhe(4-Me)][dP][hPhe(3-Cl-4-CF3)]P)) | 230
CC[C@H](C)[C@@H]1NC(=O)[C@H](CC(C)C)N(C)C(=O)C[C@@H](C(=O)N2CCCCC2)N(C)C(=O)[C@H](CC(C)C)N(C)C(=O)C(C)(C)NC(=O)[C@H](COCC(C)(C)O)N(C)C(=O)[C@H](CCc2ccc(C(F)(F)F)c(Cl)c2)NC(=O)CN(C)C(=O)[C@H](COCCC(C)C)N(C)C(=O)CN(C)C(=O)CN(C)C1=O [Compound 1541] ([NMeL]I[Sar][Sar][NMeS](Isopentyl)[Sar][hPhe(3-Cl-4-CF3)][NMeS](CH2CMe2OH)[Aib][NMeL][NMeD]-Piperidide; lactam N-11) | 4
